Consider 30 compounds from PMC5291514, “Structure activity relationship and modeling studies of inhibitors of lysine specific demethylase 1” (PLoS ONE, 2017).

Assay [1] addresses T1, recombinant human LSD1 (Homo sapiens, UniProt O60341).
T1 construct: Human LSD1 catalytic domain, consisting of residues 172–833; GST (N); made in house; host or cells: Escherichia coli BL21-CodonPlus
Nature of the assay: LSD1 enzyme inhibition, HRP-coupled Amplex red assay. The class given is biochemical. Particulars: for Selectivity index for LSD1: LSD1 versus MAO-A and -B; for fold less active against LSD1 than 10: comparator compound 10; for fold more active against LSD1 than compound 24: comparator compound 24; for selectivity for LSD1 inhibition: LSD1 over MAO-A/-B. The protocol: Human LSD1 catalytic domain, consisting of residues 172–833, was expressed in Escherichia coli BL21-CodonPlus strain (Agilent) as a GST fusion protein, by using a pGEX-KG vector. Briefly, the cells were grown to late log phase at 37°C and then were induced overnight with 0.2 mM IPTG at 25°C. Cells were harvested and lysed by French Press in PBS buffer and the supernatant was subjected to an affinity column chromatography using the glutathione sepharose resin. The eluted LSD1 fractions were further purified with ~90% purity by gel filtration on a Superdex 200 column (GE healthcare).
Horseradish peroxidase (HRP)-coupled assay was used for the evaluation of the inhibitors, based on the reaction rate (i.e., amount of the product H2O2) being quantitatively determined by adding HRP and a HRP fluorescence substrate Amplex red.[20] 30 nM LSD1 was incubated with increasing concentrations of a compound in 50 mM phosphate buffer (pH = 7.0 containing 0.01% Brij-35) for 30 min at 25°C. […] The final volume of the reaction is 60 μL. Upon 20 min incubation, 60 μL solution containing HRP (0.01 unit) and Amplex red (80 μM) was added to quench the reaction. The fluorescence of each well was then determined using a Beckman DTX-880 microplate reader (excitation at 535; emission at 595 nm). Data were imported into Prism 5.0 (GraphPad) and the IC50 values were calculated by using the sigmoidal dose response curve fitting in the software. The reported IC50s were the mean values of at least three independent experiments.

For assay [2], the target named is T2, human MAO-B (Homo sapiens, UniProt P27338).
T2 construct: purchased Sigma
T2 sequence (P27338 1-520): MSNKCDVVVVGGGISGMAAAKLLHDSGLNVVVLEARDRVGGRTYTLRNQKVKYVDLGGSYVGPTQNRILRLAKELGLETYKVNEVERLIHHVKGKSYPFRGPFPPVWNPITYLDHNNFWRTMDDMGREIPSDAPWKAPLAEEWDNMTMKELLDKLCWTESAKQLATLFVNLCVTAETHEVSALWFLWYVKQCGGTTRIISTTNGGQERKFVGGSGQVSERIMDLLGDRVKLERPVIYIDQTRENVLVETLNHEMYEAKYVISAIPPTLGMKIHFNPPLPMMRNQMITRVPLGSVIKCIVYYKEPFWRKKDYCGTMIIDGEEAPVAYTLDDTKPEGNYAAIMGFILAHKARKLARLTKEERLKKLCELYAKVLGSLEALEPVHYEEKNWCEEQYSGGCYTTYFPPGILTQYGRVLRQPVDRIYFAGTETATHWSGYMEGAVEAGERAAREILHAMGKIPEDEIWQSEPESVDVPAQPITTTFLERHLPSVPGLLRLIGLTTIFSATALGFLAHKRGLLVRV
In words: Inhibition of MAO-B, MAO-Glo assay kit. Type of assay: biochemical. The note with it: Table 2; 100 nM MAO-B, 60 min. The protocol:
(§1) Inhibition of MAO-A and -B was determined using MAO-Glo assay kit (Promega). Following the manufacturer’s protocol, assays were performed in 384 well white plates (Corning) in the presence of 100 nM MAO-A/-B (Sigma) and MAO substrate. The final volume of each reaction mixture was 20 μL. Reactions were quenched after 60 min by adding reconstituted luciferin detection reagent (20 μL/well). 20 min after addition of detection reagent, the plate was measured in luminescence mode using Beckman DTX-880 microplate reader. IC50 calculation was done similarly.

Assay [3] deals with T3, human MAO-A (Homo sapiens, UniProt P21397).
T3 construct: purchased Sigma
T3 sequence (P21397 1-527): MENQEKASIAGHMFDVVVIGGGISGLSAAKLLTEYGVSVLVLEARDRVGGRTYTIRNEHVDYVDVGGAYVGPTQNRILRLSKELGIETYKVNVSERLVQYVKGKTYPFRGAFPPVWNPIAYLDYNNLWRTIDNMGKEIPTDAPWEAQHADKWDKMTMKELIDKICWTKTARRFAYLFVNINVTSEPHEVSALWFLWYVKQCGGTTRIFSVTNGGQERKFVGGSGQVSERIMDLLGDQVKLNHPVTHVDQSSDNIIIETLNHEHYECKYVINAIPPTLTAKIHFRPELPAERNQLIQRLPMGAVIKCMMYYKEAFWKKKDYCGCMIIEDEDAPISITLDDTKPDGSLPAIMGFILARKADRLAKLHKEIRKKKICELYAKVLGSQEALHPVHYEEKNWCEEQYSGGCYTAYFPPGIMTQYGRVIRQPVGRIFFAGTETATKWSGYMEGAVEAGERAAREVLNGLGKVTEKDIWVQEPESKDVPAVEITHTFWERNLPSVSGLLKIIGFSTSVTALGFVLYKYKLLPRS
In words: Inhibition of MAO-A, MAO-Glo assay kit. Type of assay: biochemical. Particulars: Table 2; 100 nM MAO-A, 60 min. The method, then: as §1

In assay [4] the target is MAO-A and -B. Nature of the assay: Inhibition of MAO-A/-B, MAO-Glo assay kit, one range given over both enzymes. Type of assay: biochemical, human. Particulars: range over both enzymes and the named compounds; read-out: IC50 against MAO-A and -B. The protocol:
as §1

Where [5] appears, read: Table 1, 30 nM LSD1, 30 min preincubation, 10 μM H3K4Me2 peptide.

For the compound `CN1CCN(C(=O)CNC2CC2c2ccc(-c3ccc(F)nc3)cc2)CC1` (racemic) [Compound 2, reference compound], the IC50 worked out at 77 nM in assay [1] (setting [5]), 77 nM in assay [1] (Table 2), 480000 nM in assay [2] and 120000 nM in assay [3]. In addition, in assay [1] (Table 2), the “Selectivity index for LSD1” value is >1,500.

As for `CN1CCN(C(=O)CNC2CC2c2ccc(Br)cc2)CC1` (racemic) [Compound 3, reference compound], the IC50 in assay [1] (setting [5]) was 35 nM; in assay [1] (Table 2), 35 nM; in assay [2], 16300 nM; in assay [3], 7300 nM. The “Selectivity index for LSD1” value in assay [1] (Table 2) is above 208.

In the case of `CN1CCN(C(=O)CNC2CC2c2ccc(-c3ccc(Cl)nc3)cc2)CC1` (racemic) [Compound 4], in assay [1] (setting [5]), the half-inhibitory concentration (IC50) stood at 150 nM.

As to `CN1CCN(C(=O)CNC2CC2c2ccccc2Br)CC1` (racemic) [Compound 5], in assay [1] (setting [5]), the IC50 was above 100000 nM.

As to `CN1CCN(C(=O)CNC2CC2c2cccc(Br)c2)CC1` (racemic) [Compound 6], in assay [1] (setting [5]), the IC50 is above 100000 nM.

`NC1CC1c1ccc(OCc2ccccc2)cc1` (racemic) [Compound 7]: the 50% inhibitory concentration (IC50) in assay [4] was 170 to 3100 nM; in assay [1] (setting [5]), 910 nM; in assay [1] (Table 2), 910 nM; in assay [2], 350 nM; in assay [3], 170 nM. Moreover, the “fold less active against LSD1 than the corresponding compounds 1–3” value in assay [1] (7 vs 1, 8 vs 2, 9 vs 3) amounted to 92 fold. Besides, in assay [1] (Table 2), the “Selectivity index for LSD1” value is given as below 0.38.

Consider `O=C(CNC1CC1c1ccc(Br)cc1)N1CCNCC1` (racemic) [Compound 10], for which the IC50 in assay [1] (setting [5]) was found to be 64 nM; in assay [1] (Table 2) it was 64 nM; in assay [2], 23100 nM; in assay [3], 18100 nM. For the same compound, the “Selectivity index for LSD1” value in assay [1] (Table 2) is reported as above 280.

Take `O=C(CNC1CC1c1ccc(Br)cc1)N1CCCCC1` (racemic) [Compound 11]: the IC50 in assay [1] (setting [5]) turned out to be 620 nM; in assay [1] (Table 2), 620 nM; in assay [2] it was 510 nM; in assay [3] it was 260 nM. The “Selectivity index for LSD1” value in assay [1] (Table 2) is below 0.82. Besides, the “fold less active against LSD1 than 10” value in assay [1] is on record as ~ 10 ×.

Consider `O=C(CNC1CC1c1ccc(Br)cc1)N1CCCC1` (racemic) [Compound 12], for which the IC50 in assay [1] (setting [5]) stood at 3600 nM. Also, the “fold less active against LSD1 than 10” value in assay [1] is reported as around 56 ×.

As to `O=C(CNC1CC1c1ccccc1)N1CCNCC1` (racemic) [Compound 13], the concentration for half-maximal inhibition (IC50) in assay [1] (setting [5]) was 190 nM. The “fold more active against LSD1 than 14” value in assay [1] (comparator compound 14) is ~ 7 fold.

As for `O=C(CNC1CC1c1ccccc1)N1CCCCC1` (racemic) [Compound 14], the IC50 in assay [1] (setting [5]) is 1300 nM.

As for `Brc1ccc(C2CC2NCC2CCNCC2)cc1` (racemic) [Compound 15], the IC50 in assay [1] (setting [5]) was determined as 260 nM.

Take `Oc1ccc(CNC2CC2c2ccc(Br)cc2)cc1` (racemic) [Compound 18]: the IC50 in assay [1] (setting [5]) was found to be 94000 nM.

On to `Nc1ccc(CNC2CC2c2ccc(Br)cc2)cc1` (racemic) [Compound 19], for which the IC50 in assay [1] (setting [5]) was above 100000 nM.

For `CN(C)c1ccc(CNC2CC2c2ccc(Br)cc2)cc1` (racemic) [Compound 20], the concentration for half-maximal inhibition (IC50) in assay [1] (setting [5]) came to 71000 nM.

As to `Brc1ccc(C2CC2NCc2ccncc2)cc1` (racemic) [Compound 21], the IC50 in assay [1] (setting [5]) is above 100000 nM.

For `CC(=O)NC1CC1c1ccc(Br)cc1` (racemic) [Compound 22], the IC50 in assay [1] (setting [5]) came out at 15400 nM.

For the compound `O=C(Nc1ccccc1)NC1CC1c1ccc(Br)cc1` (racemic) [Compound 23], the IC50 in assay [1] (setting [5]) came to 7400 nM.

Regarding `Brc1ccc(C2CC2N=Cc2ccccc2)cc1` (racemic) [Compound 24], the IC50 in assay [1] (setting [5]) was 15600 nM.

As to `Brc1ccc(C=NC2CC2c2ccc(Br)cc2)cc1` (racemic) [Compound 25], the IC50 in assay [1] (setting [5]) worked out at 1200 nM. The “fold more active against LSD1 than compound 24” value in assay [1] is given as above 10 ×.

With `COc1ccccc1C=NC1CC1c1ccc(Br)cc1` (racemic) [Compound 26], in assay [1], the “selectivity for LSD1 inhibition” value is recorded as “no LSD1 selectivity was observed”. In addition, the IC50 amounted to 740 nM in assay [1] (setting [5]), 740 nM in assay [1] (Table 2), 400 nM in assay [2] and 300 nM in assay [3]. Further, the “Selectivity index for LSD1” value in assay [1] (Table 2) was below 0.54. Besides, in assay [1], the “fold more active against LSD1 than compound 24” value was above 10 ×.

On to `COc1cccc(C=NC2CC2c2ccc(Br)cc2)c1` (racemic) [Compound 27], for which the IC50 in assay [1] (setting [5]) came to 900 nM. The “fold more active against LSD1 than compound 24” value in assay [1] was above 10 ×.

Turning to `CN(C)c1ccc(C=NC2CC2c2ccc(Br)cc2)cc1` (racemic) [Compound 29], the “LSD1 inhibitory activity in words” value in assay [1] was “only modest activities”. In assay [1] (setting [5]), the IC50 came to 11000 nM.

`Brc1ccc(C2CC2N=Cc2ccncc2)cc1` (racemic) [Compound 30]: the “LSD1 inhibitory activity in words” value in assay [1] is recorded as “only modest activities”. For the same compound, the half-maximal inhibitory concentration (IC50) in assay [1] (setting [5]) is 14000 nM.

In the case of `O=C(CNNC1CC1c1ccccc1)N1CCNCC1` (racemic) [Compound 32], the “selectivity for LSD1 inhibition” value in assay [1] was above 150 fold. The IC50 in assay [1] (setting [5]) amounted to 670 nM; in assay [1] (Table 2), 670 nM; in assay [2] it was 370000 nM; in assay [3], 97500 nM. In addition, the “Selectivity index for LSD1” value in assay [1] (Table 2) is above 145. In assay [1] (comparator compound 13), the “fold less active against LSD1 than cyclopropylamine analog 13” value was ~ 3 ×. Also, in assay [1] (comparator compound 31), the “fold enhanced LSD1 activity over 31” value was ~ 9 fold.

In the case of `O=C(NNC1CC1c1ccccc1)N1CCNCC1` (racemic) [Compound 33], the IC50 in assay [1] (setting [5]) stood at 84000 nM.

Regarding `Brc1ccc(C2CC2NNCC2CCNCC2)cc1` (racemic) [Compound 34], in assay [1] (setting [5]), the IC50 came out at 1700 nM. In addition, the “fold less active against LSD1 than cyclopropylamine analog 15” value in assay [1] (comparator compound 15) is on record as ~ 7 ×.

Consider `Brc1ccc(C2CC2NCc2ccccc2)cc1` (stereo not shown) [Compound 17], for which the IC50 in assay [1] (setting [5]) was determined as 5000 nM.

With `NNC1CC1c1ccccc1` (stereo not drawn) [Compound 31, Trans-phenyl cyclopropyl hydrazine], the IC50 in assay [1] (setting [5]) was determined as 5800 nM; in assay [2] it was 87000 nM; in assay [3] it was 40700 nM. The “Selectivity index for LSD1” value in assay [1] (Table 2) is recorded as above 7.

With `CN1CCN(C(=O)CNCC#Cc2ccccc2)CC1` [Compound 35, 1-(4-methylpiperazin-1-yl)-2-((3-phenylprop-2-yn-1-yl)amino)ethan-1-one], the IC50 in assay [1] (setting [5]) stood at 36400 nM.
